Structures are written as SMILES. Where two headings read alike, the source gives them in different places.

The subject of test [1] is HIF-1α, EPAS-1, and CA-IX protein expression in MDA-MB-231. Put plainly: Western blot of HIF-1α, EPAS-1 and CA-IX in MDA-MB-231 cells under hypoxia. The format is cell-based, human. To be noted: MDA-MB-231, 50 μM, 48 h, hypoxia. Here is the method:
Based on these findings, we decided to assess the ability of the SIRT3 activators 3a–d to impair HIF-1α, EPAS-1, and CA-IX protein expression in CAL-62 (Figure 10A–F) and MDA-MB-231 (Figure 11A–F) cell lines treated with the compounds at 50 μM for 48 h and under hypoxia conditions.
(§1) Breast cancer cell line MDA-MB-231, anaplastic thyroid cancer cell line CAL-62 and human keratinocytes HaCaT were purchased from ATCC and were cultured in RPMI 1640 medium (R0883 Sigma Aldrich-MERCK) (MDA-MB-231 and CAL-62) or DMEM medium (11965092, Gibco) supplemented with 10% fetal bovine serum (Sigma-Aldrich-MERCK, F9665), 2 mM glutamine (G7513; Sigma-Aldrich-MERCK), 100 units/mL penicillin and 0.1 mg/mL streptomycin (P0781; Sigma-Aldrich-MERCK). Adherent cells were detached by Trypsin–EDTA solution (TA049; Sigma-Aldrich-MERCK). Cells were maintained at 37 °C in humidified incubator with 5% CO2. Cells were treated with […] (CoCl2) (Merck; C8661) dissolved in distilled, sterile water for 24 h to induce hypoxia (200 μM). Hypoxic and normoxic cells were also treated with 10/50 μM of the indicated compounds (dissolved in DMSO) for 48 h, maintaining the CoCl2 in the culture medium for hypoxic conditions. SIRT3 inhibitor 3-TYP was dissolved in DMSO and added to a final concentration of 1 μM for 24 and/or 48 h.
(§2) The following antibodies were used in this study: ACTB (Merck; A5316), HIF1-α (Cell Signaling; 14179), HIF2/EPAS-1 (Santa Cruz Biotechnology sc-13596), HXKII (Santa Cruz Biotechnology sc-6521), CAIX (Novus Biotechnology NB100-417), SIRT3 (Cell Signaling; 2627S), MnSOD (Abcam ab13533), MnSOD K68 (Abcam ab137037), MnSOD K122 (Abcam ab214675), peroxidase-conjugated AffiniPure Goat Anti-Rabbit IgG (H + L) (Jackson ImmunoResearch; 111-035-003), and peroxidase-conjugated AffiniPure Goat Anti-Mouse IgG (H + L) (Jackson ImmunoResearch; 115-035-062).
Treated and untreated cells were collected and centrifuged at 3000 rpm for 5 min. After removing the supernatant, cells were lysed in 70 μL of lysis buffer containing: 50 mM Tris-Cl (Merck; 93352), 250 mM sodium chloride (NaCl, Merck; S7653), 5 mM ethylenediaminetetraacetic acid (EDTA; Merck; E6758), 0.1% Triton X-100 and 0.1 mM dithiothreitol (Merck; D9163) plus 1 mM phenylmethylsulfonyl fluoride (PMSF, Merck; 93482), protease inhibitor cocktail (PI; Merck; P8340), 1 mM sodium orthovanadate (NA3VO4, Merck; S6508), and 10 mM sodium fluoride (NaF, Merck; 201154) (lysis buffer). After 30 min on ice, samples were centrifuged at 13,000 rpm for 10 min at 4 °C, and the supernatants collected. Protein concentration was determined by the Bradford assay (Bio-Rad; 500-0205). The equivalent of 15 or 50 μg of protein was boiled for 5 min, electrophoresed onto denaturing SDS-PAGE gel, and transferred onto a […] nitrocellulose membrane (Bio-Rad; 162-0115). After blocking with 5% milk, membranes were incubated with the appropriate primary antibody overnight. The next day, after three washes with 0.1% Tween 20 (Merck; P9416) in PBS (PBST) for 30 min at rt, membranes were incubated with the appropriate secondary antibody for 1 h at rt. After three more washes in PBST, the detection of the relevant protein was assessed by enhanced chemiluminescence (Lite Ablot TURBO, Euro-Clone; EMP012001). Densitometric analysis of the bands, relative to ACTB, was performed using ImageJ Software v1.51 (NIH, Bethesda, MD, USA).

The test system of test [2] is acK68- and acK122-MnSOD in CAL-62 cells. The experiment in a line: Western blot of MnSOD acK68 and acK122 marks in CAL-62 cells. The format is cell-based. To be noted: 50 μM, 4 h, CAL-62. The procedure: (§3) K68-MnSOD acetylation promotes a transformation-permissive phenotype, leading to a chemotherapy-resistant breast cancer cell model using cisplatin and doxorubicin.[68] […] The specific SIRT3 inhibitor 3-TYP was utilized as negative control.
as §1, with “Hypoxic and normoxic cells were also treated with 10/50 μM of the indicated compounds (dissolved in DMSO) for 48 h, maintaining the CoCl2 in the culture medium for hypoxic conditions. SIRT3 inhibitor 3-TYP was dissolved in DMSO and added to a final concentration of 1 μM for 24 and/or 48 h.” left out
(§4) Treated and untreated cells were collected and centrifuged at 3000 rpm for 5 min. […] Protein concentration was determined by the Bradford assay (Bio-Rad; 500-0205). […] After three more washes in PBST, the detection of the relevant protein was assessed by enhanced chemiluminescence (Lite Ablot TURBO, Euro-Clone; EMP012001). […]

In test [3] the test system is acK68- and acK122-MnSOD in MDA-MB-231 cells. Put plainly: Western blot of MnSOD acK68 and acK122 marks in MDA-MB-231 cells. The format is cell-based, human. The settings on record: 4 h, MDA-MB-231. Here is the method:
as §3
as §1, with “Hypoxic and normoxic cells were also treated with 10/50 μM of the indicated compounds (dissolved in DMSO) for 48 h, maintaining the CoCl2 in the culture medium for hypoxic conditions. SIRT3 inhibitor 3-TYP was dissolved in DMSO and added to a final concentration of 1 μM for 24 and/or 48 h.” left out
as §2, §4

In test [4] the test system is MDA-MB-231 cells. The experiment in a line: Cell viability / cell death, trypan blue exclusion, MDA-MB-231. The format is cell-based, human.

Consider `CCOC(=O)C1=CN(C(=O)c2ccc(OC)c(OC)c2)C=C(C(=O)OCC)C1c1ccccc1` [Compound 3c, Diethyl 1-(3,4-dimethoxybenzoyl)-4-phenyl-1,4-dihydropyridine-3,5-dicarboxylate], for which, in test [1], the EPAS-1 protein levels entry is listed as “significantly reduced” and the HIF-1α protein levels entry is “significantly reduced”.
Regarding `CCOC(=O)C1=CN(C(=O)c2cc(OC)cc(OC)c2)C=C(C(=O)OCC)C1c1ccccc1` [Compound 3d, Diethyl 1-(3,5-dimethoxybenzoyl)-4-phenyl-1,4-dihydropyridine-3,5-dicarboxylate], the “ratio acK68- or acK122-MnSOD/MnSOD” value in test [2] and in test [3] (50 μM) was “decrease” throughout. For the same compound, the CA-IX protein expression entry in test [1] was “most potent”. Besides, the EPAS-1 protein levels result in test [1] is “significantly reduced”. In addition, the HIF-1α protein levels result in test [1] is given as “significantly reduced”. Further, the acK122-MnSOD deacetylation result in test [3] (10 μM) is listed as “significant acK122 deacetylation”. In addition, the viability at 5 µM in test [4] (Homo sapiens, MDA-MB-231, 5 μM, 24 h, read-out: Cell viability (%) T24) turned out to be 74.1%; in test [4] (Homo sapiens, MDA-MB-231, 5 μM, 48 h, read-out: Cell viability (%) T48) it was 51.7%. Moreover, the viability at 10 µM in test [4] (Homo sapiens, MDA-MB-231, 10 μM, 24 h, read-out: Cell viability (%) T24) worked out at 56.2%. Moreover, the viability at 25 µM came to 42.8% in test [4] (Homo sapiens, MDA-MB-231, 25 μM, 24 h, read-out: Cell viability (%) T24) and 21.1% in test [4] (Homo sapiens, MDA-MB-231, 25 μM, 48 h, read-out: Cell viability (%) T48). Further, the “Cell death (%) T24” value is 25,9% in test [4] (MDA-MB-231, 5 μM, 24 h); 43,8% in test [4] (MDA-MB-231, 10 μM, 24 h); 57,2% in test [4] (MDA-MB-231, 25 μM, 24 h). In addition, the “Cell death (%) T48” value in test [4] (MDA-MB-231, 5 μM, 48 h) is reported as 48,3%; in test [4] (MDA-MB-231, 25 μM, 48 h) it was 78,8%.

Source of the values: PMC10388363, “Novel 1,4-Dihydropyridines as Specific Binders and Activators of SIRT3 Impair Cell Viability and Clonogenicity and Downregulate Hypoxia-Induced Targets in Cancer Cells” (Journal of Medicinal Chemistry, 2023).
